According to PubChem BioAssay (NCI):
Where “and” joins values, the source holds several entries; their conditions need not be identical. Equal entries are not always repeated.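 Dose response: 5 concentrations. Exposure: 48 h. Format: 96-well plates. Endpoint: linear interpolation; highest concentration if not reached. Here, GI50 denotes the concentration required for 50% inhibition of growth. TGI: concentration producing complete growth inhibition.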

Assays:
Assay in all cases: inhibition of tumour cell growth, NCI panel, 48 h
[1] = tested on: COLO 205 colon
[2] = tested on: NCI-H23 lung
[3] = tested on: LOX IMVI melanoma
[4] = tested on: U251 CNS
[5] = tested on: CCRF-CEM leukemia
[6] = tested on: SK-MEL-28 melanoma
[7] = tested on: UACC-257 melanoma
[8] = tested on: HCT-15 colon
[9] = tested on: SF-539 CNS
[10] = tested on: HL-60(TB) leukemia

Row | SMILES | GI50 [1] [µM] | TGI [1] | GI50 [2] | TGI [2] | GI50 [3] | TGI [3] | GI50 [4] | TGI [4] | GI50 [5] | TGI [5] [µM] | GI50 [6] | TGI [6] | GI50 [7] | TGI [7] [µM] | GI50 [8] [µM] | TGI [8] | GI50 [9] | TGI [9] | GI50 [10] | TGI [10]
1 | C=C(C(=O)OC)[C@@H]1C[C@@H](O)[C@]2(C)CC/C=C(\C)CCC[C@H](C)[C@H](O)C1O2 | 36.1 | > 100 µM | 80.6 µM | > 100 µM | 32.8 µM | > 100 µM | 51.4 µM | > 100 µM | 24.2 µM | 46 | > 100 µM | > 100 µM | > 100 µM | > 100 | 59 | > 100 µM | > 100 µM | > 100 µM |  | 
2 | COc1ccc(Cn2cc(Cn3c(=O)c(-c4nc5ccccc5[nH]4)cc4ccccc43)nn2)c(OC)c1OC |  |  | 0.329 µM and 0.581 µM | 50 µM and > 100 µM | 0.254 µM and 0.112 µM |  | 0.308 µM and 0.183 µM | 8.29 µM and 17.6 µM | 0.174 µM and 0.443 µM |  | 0.539 µM and 0.912 µM | 1.66 µM and 4.61 µM | 0.796 µM and 2.22 µM |  | 0.378 | > 100 µM | 0.144 µM and 0.206 µM | 0.664 µM and 0.872 µM | 0.114 µM and 0.306 µM | 50 µM and > 100 µM
3 | CN1c2ccccc2C(C)(C)C12CC(c1ccc(Cl)c(S(=O)(=O)N3CCCC3)c1)=NO2 (centres undefined) | > 100 | > 100 µM | > 100 µM | > 100 µM |  |  | 0.531 µM | > 100 µM |  |  | > 100 µM | > 100 µM | > 100 µM | > 100 | 0.118 | > 100 µM | > 100 µM | > 100 µM | > 100 µM | > 100 µM
4 | O=C(Nc1ccccc1F)c1ccc(NC2=C(Cl)C(=O)N(Cc3ccccc3)C2=O)cc1 | 9.03 | 21 µM | 13 µM | 25.7 µM | 2.35 µM | 5.9 µM | 13.3 µM | 26 µM |  |  | 3.88 µM | 13.5 µM | 12.5 µM | 29.8 | 3.38 | 12.3 µM | 6.18 µM | 18 µM | 1.72 µM | 3.36 µM
5 | CC(=O)OC1=C2C(CC3C4CC=C5CC(OC(C)=O)CCC5(C)C4CCC23C)C2C(=O)N(Cc3ccccc3)C(=O)C2C1 (centres undefined) | 8.12 | 25 µM | 16.6 µM | 74 µM |  |  |  |  | 3.39 µM | > 100 | 28.9 µM | > 100 µM | 10.9 µM | > 100 | 3.09 | > 100 µM | 3.48 µM | 14.4 µM | 3.65 µM | 17.8 µM
6 | O=[N+]([O-])c1ccc(O)c2ncccc12 |  | > 100 µM and 10.7 µM |  | > 100 µM and 28.9 µM |  | > 100 µM and 13 µM |  | > 100 µM and 13.3 µM |  | > 100 |  | > 100 µM and 24.7 µM |  |  |  | > 100 µM and 18.8 µM |  | > 100 µM and 20.8 µM |  | 
7 | COC(=O)c1cc2c(cc1Cl)SC(N(N(C)C)S(=O)(=O)c1ccc(Cl)cc1)=NS2(=O)=O | 13.4 | 29.8 µM | 19.7 µM | 43.5 µM | 15 µM | 28.3 µM | 17 µM | 44.8 µM | 14.1 µM | 37.1 | 15.9 µM | 29.3 µM |  |  | 14.1 | 27.1 µM | 15.8 µM | 31.5 µM | 16.4 µM | 42.6 µM
8 | COC(=O)[C@H](Cc1ccccc1)NC(=O)[C@@H](OC)[C@@H]1Cc2cc3cc(OC4CC(OC5CC(O)C(O)C(C)O5)C(O)C(C)O4)c(C)c(O)c3c(O)c2C(=O)[C@H]1OC1CC(OC2CC(OC3CC(C)(O)C(O)C(C)O3)C(O)C(C)O2)C(O)C(C)O1 (some centres undefined) | 0.0182 | 0.0682 µM | 0.0106 µM | 0.0821 µM |  |  | 0.0257 µM | > 14.3 µM | 0.0137 µM | > 14.3 | 0.00578 µM | 0.0368 µM | 0.0103 µM | 2.54 | 0.0725 | > 14.3 µM | 0.0088 µM | 0.065 µM | 0.0336 µM | 0.649 µM
9 | O=C1CC(c2c[nH]c3ccccc23)C(=O)N1c1ccccc1 (centres undefined) |  |  |  | > 100 µM |  |  |  | > 100 µM |  | > 100 |  | > 100 µM |  | > 100 |  | > 100 µM |  | > 100 µM |  | > 100 µM
10 | C1C[OH+]CC[OH+]CC[OH+]CC[OH+]CC[OH+]CC[OH+]1.[Cl-].[Ta+5] | > 100 | > 100 µM | > 100 µM | > 100 µM | > 100 µM | > 100 µM | > 100 µM | > 100 µM |  |  | > 100 µM | > 100 µM | > 100 µM | > 100 | > 100 | > 100 µM | > 100 µM | > 100 µM | > 100 µM | > 100 µM
11 | CC(C)CC(=O)CC(O)C(Cl)(Cl)Cl (centres undefined) |  | > 100 µM |  | > 100 µM |  | > 100 µM |  | > 100 µM |  | > 100 |  | > 100 µM |  | > 100 |  | > 100 µM |  |  |  | 
12 | CC1=N/C(=C\c2cccc3ccccc23)C(=O)O1 |  | > 100 µM |  | > 100 µM |  |  |  | > 100 µM |  | > 100 |  | > 100 µM |  | > 100 |  | > 100 µM |  | > 100 µM |  | > 100 µM
13 | N#Cc1ccc2oc3ccc(C#N)cc3c(=O)c2c1 |  | > 100 µM |  | 51.1 µM |  |  |  | 31.7 µM |  | 74 |  | 36.7 µM |  | > 100 |  | > 100 µM |  | 43.6 µM |  | 38.5 µM
14 | CC(C)(C)n1cc(-c2ccnc(NCCNS(=O)(=O)c3cccc4ccccc34)c2)c(-c2cccc(F)c2)n1 | 8.98 | 43.3 µM | 14.9 µM | 59.1 µM |  |  | 12.4 µM | 33.4 µM | 8.38 µM | > 100 | 16.6 µM | 37 µM | 25 µM | 86.7 | 6 | 24.9 µM | 16.1 µM | 31.7 µM | 17.5 µM | 44.5 µM
15 | COC(=O)C(=O)C(C#N)c1ccc(Cl)c(Cl)c1 (centres undefined) |  |  |  | > 100 µM |  | > 100 µM |  | > 100 µM |  | > 100 |  | > 100 µM |  | > 100 |  | > 100 µM |  | > 100 µM |  | > 100 µM
16 | C=C1CO[C@@H]2C[C@@H]1CCC1(C)OC1CC/C(C)=C/CC[C@@]2(C)O (some centres undefined) | 34.4 | > 87.2 µM | 27.8 µM | > 73 µM | 7.55 µM | 21.4 µM | 37.6 µM | > 74.2 µM | 15.1 µM | 38.1 | > 89.6 µM | > 100 µM | 44.7 µM | > 100 | 35.8 | > 87 µM | 16.1 µM | 31.3 µM |  | 
